Experiment [1] relates to shaved New Zealand white rabbits. Kind of experiment: Hair growth after intradermal peptide injection into the backs of shaved rabbits. The experiment is classed as in vivo, rabbit. To be noted: for hair growth at the sites of injection: 100 μg intradermally in Freund's adjuvant, observed approximately 3-4 weeks after last injection. How it is done:
0.1 mg (100 μg) of the following peptides were injected intradermally into the backs of the shaved New Zealand white rabbits: synthetic mammalian GLP-1 (1-37), synthetic GLP-1 peptide fragment containing amino acid sequence 16-30 of GLP-1 (1-37) (amino acid numbering starts from histidine 1 of mammalian GLP-1 (1-37), synthetic rat GLP-2 peptide fragment containing amino acid sequence 9-24 of rat GLP-2 (amino acid numbering starts at histidine 1 of the rat GLP-2 sequence), rat IP-2 and synthetic mammalian glucagon. Sequences for rat GLP-2, rat IP-2 and mammalian glucagon are well known in the art, and are provided, for example, in U.S. Pat. No. 6,849,708, which is hereby wholly incorporated by reference (see, e.g., FIG. 1 of U.S. Pat. No. 6,849,708). The total amount of peptide was administered in 10-20 intradermal injections as an emulsification in Freund's adjuvant. Each peptide was tested in four rabbits, except for GLP-1 (1-37) that was injected into 5 rabbits. This amount of peptide was administered at 3 time intervals (100 μg at each time interval), one week apart. […] This effect was not observed in any of the rabbits that were immunized with any other of the above described peptides. […] The inventors observed enhanced hair growth upon intradermal injection of only GLP-1 (1-37) into rabbits.

The subject of experiment [2] is cultured skin-derived cells. Kind of experiment: fura-2 loading and perforated patch clamp monitoring of membrane potential and current. The note with it: perforated patch clamp; data not shown. The experiment is classed as cell-based, mouse. The text has this:
The cells were next loaded with the Ca2+ indicator fura-2, and changes in membrane potential and current were monitored using the perforated patch clamp technique.

The subject of the next experiment is P42/44 MAPK (ERK1/2). Description: Western immunoblot of ERK1/2 phosphorylation in primary skin cell cultures. Format: cell-based, mouse. To be noted: 10 nM GLP-1. How it is done: Cultures of C57B6/L mouse skin-derived cells were grown in 100 mm dishes to 80% confluence. Cultures were washed once with PBS and incubated with KRB buffer (115 mM NaCl, 5 mM KCl, 10 mM NaHCO3, 2.5 mM MgCl2, 2.5 mM CaCl2, 20 mM HEPES, pH 7.4) containing 0.5% bovine serum albumin (BSA) and 1 mM glucose at 37° C. for 1 hour. Cultures were then incubated with 10 nM GLP1 in the setting of no (0 mM), low (2.8 mM) or high (16.7 mM) glucose. Proteins were extracted with lysis buffer (50 mM Hepes pH 7.6, 160 mM NaCl, 20 mM sodium pyrophosphate, 20 mM glycerophosphate, 10 mM NaF, 2 mM sodium vanadate, […], and protease inhibitor cocktail). Ten (10) μg of protein per lane was electrophoresed in 4-12% Bis-Tris gels (Invitrogen Corp.) and transferred onto nitrocellulose membranes (Nitrobind, Osmotics, Inc., Minnetonka, Minn.) at 4° C. overnight. Membranes were blocked with 3% BSA in PBS with 0.2% Tween-80 for 1 hour at RT, incubated with mouse monoclonal anti-phospho-P42 MAPK antibody (1:2000 dilution) at 4° C. overnight, washed, and incubated with horseradish peroxidase-conjugated secondary antibody at RT for 1 hour. Immunostained proteins were detected using a the ECL chemiluminescence detection kit (Amersham Biosciences, Ltd., Buckinghamshire, England). […]

In another experiment the test system is mouse skin-derived cells. Description: Differentiation of cultured skin-derived cells into insulin C-peptide producing cells (immunostaining). The experiment is classed as cell-based. To be noted: differentiation media with GLP-1 (10 nM) for 30 days. How it is done: For in-vitro differentiation, after passaging for one month, mouse skin-derived cells were freshly plated and overlaid with differentiation medium composed of RPMI1640 containing 1% HEPES, 1% penicillin/streptomycin/fungizone, 1% pyruvate, 2% B-27 supplement, 2% FBS, […] MIN6 cells, provided by J. Miyazaki, were cultured as described (Miyazaki, J. et al., Endocrinology 127:126-32 (1990)).
For immunochemistry, 7 μm frozen sections were prepared from newborn C57BL/6 mouse skin, and skin-derived tissue culture cells were grown on coverslips. Tissues/coverslips were fixed with 4% paraformaldehyde at RT for 15 min. They were then rinsed with PBS containing 0.2% Triton X-100 and blocked with 3% normal donkey serum for 1 hour at RT. Tissues/coverslips were incubated with primary antibody at a 1:500 dilution at RT for 1 hour, rinsed with PBS containing 0.2% Triton X-100, and incubated with secondary (donkey) Cy2- or Cy3-conjugated antisera at RT for 1 hour. They were then washed with PBS and mounted with fluorescent mounting medium. […]
Mouse skin was minced and strained, and the resulting cells were used to establish primary cultures of mouse skin-derived cells. […] Immunoreactivity was detected with a Cy-3-conjugated secondary antibody.

In experiment [3] the test system is cultured skin-derived cells. Kind of experiment: cAMP luciferase reporter plasmid transfected into cultured skin-derived cells. The experiment is classed as cell-based, mouse. To be noted: data not shown.
The subject of experiment [4] is cultured skin-derived cells. Kind of experiment: cAMP levels in cell extracts after incubation with GLP-1. To be noted: incubation with GLP-1 for 5-30 min; data not shown. Format: cell-based, mouse. How it is done: To determine whether GLP-1 receptors are actively coupled to signal transduction pathways in skin-derived cells, GLP-1 was added to the cells and examined for the activation of cell signaling. Three signaling pathways were investigated: Cyclic AMP, calcium influx, and mitogen activated protein kinase phosphorylation (MAPK).
Since GLP-1Rs are classically recognized to couple to Gs and adenylyl cyclase to generate cAMP cell extracts were assayed for changes in levels of cAMP after their incubation with GLP-1 for 5-30 min.

With “GLP-1 peptide fragment containing amino acid sequence 16-30 of GLP-1 (1-37): synthetic GLP-1 peptide fragment containing amino acid sequence 16-30 of GLP-1 (1-37) (VSSYLEGQAAKEFIA; Glucagon-like peptide 1; UniProt P01275 107-121, looked up, fragment)”, the “hair growth at the sites of injection” value in experiment [1] (3 times one week apart) was “not observed”.

Regarding “glucagon [mammalian glucagon, reference compound]”, the “hair growth at the sites of injection” value in experiment [1] (3 times one week apart) is reported as “not observed”.

Regarding glucagon-like peptide-1 [GLP-1 (1-37)], in experiment [2], the “membrane current in response to peptide” value was “No membrane current was detected”. In addition, the “phosphorylation of ERK1/2 (time course)” value with P42/44 MAPK (ERK1/2) (0, 5, 15 or 30 minutes, 0, 2.8 or 16.7 mM glucose) is “prompt phosphorylation of ERK1/2 after 5 minutes followed by defervescence of phosphorylation at 15 and rephosphorylation at 30 min”. The “glucose dependence of ERK1/2 phosphorylation” value with P42/44 MAPK (ERK1/2) (no, 2.8 mM or 16.7 mM glucose) was “glucose-dependent”. Moreover, the “cytoplasmic staining of insulin C-peptide” value with mouse skin-derived cells is “Many of the cells showed cytoplasmic staining of C-peptide”. The “activation of cAMP luciferase reporter” value in experiment [3] was “failed to activate”. Also, in experiment [4], the “changes in levels of cAMP” value is listed as “No changes in cAMP levels were observed”. Also, the “hair growth at the sites of injection” value in experiment [1] (3 times one week apart) is on record as “luxurious hair growth was observed only at the sites of injection”. In addition, the “rabbits showing hair growth at the sites of injection” value in experiment [1] (100 μg intradermally, 3 times one week apart, approximately 3-4 weeks after last injection) is recorded as 4 out of 5. Moreover, the “hair growth in repeat experiments” value in experiment [1] (repeat experiments at different seasons of the year) was “variable results”.

Regarding “rat GLP-2 peptide fragment containing amino acid sequence 9-24 of rat GLP-2: synthetic rat GLP-2 peptide fragment, residues 9-24, numbering from histidine 1 of rat GLP-2 (EMNTILDNLATRDFIN; Glucagon-like peptide 2; UniProt P06883 154-169, looked up, fragment) [reference compound]”, in experiment [1] (3 times one week apart), the “hair growth at the sites of injection” value is reported as “not observed”.
